# From patent publication US5552421A, “Leukotriene biosynthesis inhibitors” (Boehringer Ingelheim Pharmaceuticals, Inc., priority 1995, dated 1996)
# Tested on: LTB4 biosynthesis in human polymorphonuclear leukocytes (PMNs)
# Assay: Inhibition of LTB4 biosynthesis in human polymorphonuclear leukocytes (PMNs)
# Assay type: cell-based
# Conditions: Homo sapiens, Leukocyte, Table 3, Phenyl; values with <: see footnote d, Table 1
# Procedure: Inhibition of LTB4, biosynthesis in human polymorphonuclear leukocytes (PMNs)
# The inhibition of leukotriene biosynthesis is measured by determining whether and to what extent test compounds can inhibit LTB4 production from endogenous arachidonic acid in human peripheral blood leukocytes.
# To 48-well tissue culture plates was added a solution of the test compound followed by addition of human polymorphonuclear leukocytes isolated from peripheral blood at a density of 1.5×10^6 cells/well. Culture plates were preincubated for fifteen minutes with shaking at 28° C. Cells were stimulated with calcium ionophore A23187 at a final concentration of 2.5 μM for an additional ten minutes. The reaction was terminated by the addition of an EGTA solution (10 mM final concentration)followed by centrifugation at 1500 rpm at 10° C. Supernatants were stored at -70° C. LTB4 levels were determined by RIA using a commercially available kit. Nonlinear regression analysis was used to calculate. IC50 values.
# The following tables show % inhibition of LTB4 biosynthesis by compounds of the invention at test concentrations indicated, with the determined IC50 shown in μM.
row,SMILES,IC50
1,O=C(O)c1ccc2nc(NC(CC3CCCCC3)c3ccccc3)sc2c1 (centres unmarked) [Compound 66],220 nM
2,N#Cc1ccc2oc(NC(CC3CCCCC3)c3ccccc3)nc2c1 (centres unmarked) [Compound 67],150 nM
3,Fc1ccc(C(CC2CCCCC2)Nc2nc3ccccc3o2)cc1 (centres unmarked) [Compound 71],170 nM

# Same assay, conditions: Homo sapiens, Leukocyte, Table 4, Pyridyl; values with <: see footnote d, Table 1
row,SMILES,IC50
1,c1cncc(C(CC2CCCCC2)Nc2nc3ccccc3o2)c1 (centres unmarked) [Compound 80],55 nM
2,Cc1ccc2oc(NC(CC3CCCCC3)c3cccnc3)nc2c1 (centres unmarked) [Compound 82],24 nM
3,Cc1ccc2oc(NC(CC3CCCCC3)c3ccncc3)nc2c1 (centres unmarked) [Compound 83],190 nM
4,O=[N+]([O-])c1ccc2nc(NC(CC3CCCCC3)c3cccnc3)oc2c1 (centres unmarked) [Compound 84],35 nM
5,O=[N+]([O-])c1ccc2oc(NC(CC3CCCCC3)c3cccnc3)nc2c1 (centres unmarked) [Compound 85],24 nM
6,Clc1ccc2oc(NC(CC3CCCCC3)c3cccnc3)nc2c1 (centres unmarked) [Compound 86],23 nM
7,Clc1ccc2oc(NC(CC3CCCCC3)c3ccccn3)nc2c1 (centres unmarked) [Compound 91],2 nM
8,COC(=O)c1ccc2oc(NC(CC3CCCCC3)c3ccccn3)nc2c1 (centres unmarked) [Compound 92],12 nM
9,Fc1ccc(CC(Nc2nc3cc(Cl)ccc3o2)c2ccccn2)cc1 (centres unmarked) [Compound 93],19 nM
10,CC(C)c1ccc2oc(NC(Cc3ccc(F)cc3)c3ccccn3)nc2c1 (centres unmarked) [Compound 94],12 nM
11,FC(F)(F)c1ccc2oc(NC(CC3CCCCC3)c3ccccn3)nc2c1 (centres unmarked) [Compound 95],1.2 nM
12,Fc1ccc(CC(Nc2nc3cc(Cl)ccc3s2)c2ccccn2)cc1 (centres unmarked) [Compound 96],27 nM
13,Clc1ccc2sc(NC(CC3CCCCC3)c3ccccn3)nc2c1 (centres unmarked) [Compound 97],4 nM
14,CC(C)c1ccc2oc(NC(Cc3ccc(Cl)cc3)c3ccccn3)nc2c1 (centres unmarked) [Compound 98],29 nM
15,Clc1ccc(CC(Nc2nc3cc(Cl)ccc3o2)c2ccccn2)cc1 (centres unmarked) [Compound 99],14 nM
16,CC(C)c1ccc2oc(NC(Cc3cccc(Cl)c3)c3ccccn3)nc2c1 (centres unmarked) [Compound 100],5 nM

row,SMILES,IC50
1,COC(=O)c1ccc2oc(NC(Cc3ccc(F)cc3)c3ccccn3)nc2c1 (centres unmarked) [Compound 101],27 nM
2,CN(C)S(=O)(=O)c1ccc2oc(NC(Cc3ccc(F)cc3)c3ccccn3)nc2c1 (centres unmarked) [Compound 103],50 nM
3,O=[N+]([O-])c1ccc(CC(Nc2nc3cc(Cl)ccc3o2)c2ccccn2)cc1 (centres unmarked) [Compound 104],< 30 nM
4,Fc1ccc2oc(NC(Cc3cccc(Cl)c3)c3ccccn3)nc2c1 (centres unmarked) [Compound 105],< 30 nM
5,Fc1ccc(CC(Nc2nc3ccc(C(F)(F)F)cc3s2)c2ccccn2)cc1 (centres unmarked) [Compound 106],< 1000 nM
6,Fc1ccc(CC(Nc2nc3cc(C(F)(F)F)ccc3o2)c2ccccn2)cc1 (centres unmarked) [Compound 107],8 nM
7,Fc1ccc2oc(NC(CC3CCCCC3)c3ccccn3)nc2c1 (centres unmarked) [Compound 109],2 nM
8,Fc1ccc(CC(Nc2nc3cc(F)ccc3o2)c2ccccn2)cc1 (centres unmarked) [Compound 110],21 nM
9,Fc1ccc2oc(NC(CC3CCCCC3)c3ccccn3)nc2c1F (centres unmarked) [Compound 111],4 nM
10,Fc1cc2nc(NC(CC3CCCCC3)c3ccccn3)oc2cc1F (centres unmarked) [Compound 112],1 nM
11,Fc1ccc(CC(Nc2nc3cc(F)c(F)cc3o2)c2ccccn2)cc1 (centres unmarked) [Compound 113],24 nM
12,COc1ccc2oc(NC(Cc3ccc(F)cc3)c3ccccn3)nc2c1 (centres unmarked) [Compound 114],11 nM
13,O=[N+]([O-])c1ccc2oc(NC(Cc3ccc(F)cc3)c3ccccn3)nc2c1 (centres unmarked) [Compound 115],< 30 nM
14,Cc1nc(CC(Nc2nc3cc(C(C)C)ccc3o2)c2ccccn2)cs1 (centres unmarked) [Compound 116],< 100 nM
15,Cc1nc(CC(Nc2nc3cc(Cl)ccc3o2)c2ccccn2)cs1 (centres unmarked) [Compound 117],< 100 nM

# Same assay, conditions: Homo sapiens, Leukocyte, Table 5, Thiophene
row,SMILES,IC50
1,c1csc(C(CC2CCCCC2)Nc2nc3ccccc3o2)c1 (centres unmarked) [Compound 120],6.2 nM

# Same assay, conditions: Homo sapiens, Leukocyte, Table 6, Methyloxadiazole; values with <: see footnote d, Table 1
row,SMILES,IC50
1,Cc1noc(C(Cc2ccccc2)Nc2nc3ccccc3s2)n1 (centres unmarked) [Compound 121],1300 nM
2,Cc1noc([C@H](Cc2ccccc2)Nc2nc3ccccc3s2)n1 [Compound 122],1800 nM
3,CCc1ccc2sc(N[C@@H](Cc3ccccc3)c3nc(C)no3)nc2c1 [Compound 123],< 1000 nM
4,Cc1noc([C@H](CC2CCCCC2)Nc2nc3ccccc3s2)n1 [Compound 124],120 nM
5,"Cc1ccc2oc(N[C@@H](CC3CCCCC3)c3nc(C)no3)nc2c1 [Compound 125, L-2-[2-Cyclohexyl-1-(3-methyl-1,2,4-oxadiazol-5-yl)ethyl]amino-5-methylbenzoxazole]",28 nM
6,Cc1noc(C(Cc2ccc(F)cc2)Nc2nc3cc(C(C)C)ccc3o2)n1 (centres unmarked) [Compound 126],< 300 nM
7,Cc1noc(C(Cc2csc(C)n2)Nc2nc3cc(C(C)C)ccc3o2)n1 (centres unmarked) [Compound 127],< 1000 nM

# Same assay, conditions: Homo sapiens, Leukocyte, Table 7, Ketones
row,SMILES,IC50
1,"CC(=O)[C@H](Cc1ccccc1)Nc1nc2ccc(C(C)C)cc2s1 [Compound 128, 3-[(6-Isopropylbenzothiazol-2-yl)amino]-4-phenylbutan-2-one]",350 nM
2,CC(=O)[C@H](Cc1ccccc1)Nc1nc2ccccc2o1 [Compound 129],< 1000 nM
3,O=C(c1ccccc1)[C@H](Cc1ccccc1)Nc1nc2ccccc2o1 [Compound 130],< 300 nM
4,Cc1ccc2oc(N[C@@H](CC3CCCCC3)C(=O)c3ccccc3)nc2c1 [Compound 131],< 1000 nM
5,Cc1ccc2oc(N[C@@H](CC3CCCCC3)C(=O)c3nccn3C)nc2c1 [Compound 132],23 nM

# Same assay, conditions: Homo sapiens, Leukocyte, Table 8, Miscellaneous Acyclic; values with <: see footnote d, Table 1
row,SMILES,IC50
1,CCOC[C@H](Cc1ccccc1)Nc1nc2cc(C(C)C)ccc2o1 [Compound 133],16 nM
2,CCCOC[C@H](Cc1ccccc1)Nc1nc2cc(C(C)C)ccc2o1 [Compound 134],220 nM
3,CCOC[C@H](Cc1ccccc1)Nc1nc2cc(Cl)ccc2o1 [Compound 135],29 nM
4,COCC(Cc1ccc(F)cc1)Nc1nc2cc(C(C)C)ccc2o1 (centres unmarked) [Compound 136],< 30 nM
5,CCOCC(Cc1ccc(F)cc1)Nc1nc2cc(C(C)C)ccc2o1 (centres unmarked) [Compound 137],< 30 nM
6,CCCOCC(Cc1ccc(F)cc1)Nc1nc2cc(C(C)C)ccc2o1 (centres unmarked) [Compound 138],< 300 nM
7,COCC(Cc1ccc(OC)cc1)Nc1nc2cc(C(C)C)ccc2o1 (centres unmarked) [Compound 139],< 30 nM
8,COCC(Cc1cccnc1)Nc1nc2cc(C(C)C)ccc2o1 (centres unmarked) [Compound 140],< 1000 nM
9,COCC(Cc1csc(C)n1)Nc1nc2cc(C(C)C)ccc2o1 (centres unmarked) [Compound 141],< 300 nM
10,CSC[C@H](Cc1cccc(Cl)c1)Nc1nc2cc(C(C)C)ccc2o1 [Compound 142],< 30 nM
11,CSCC(Cc1cccnc1)Nc1nc2cc(C(C)C)ccc2o1 (centres unmarked) [Compound 143],< 1000 nM
12,CSCC(Cc1csc(C)n1)Nc1nc2cc(C(C)C)ccc2o1 (centres unmarked) [Compound 145],< 100 nM
13,CC(C)c1ccc2oc(NC(Cc3ccccc3)CS(C)(=O)=O)nc2c1 (centres unmarked) [Compound 146],< 30 nM
14,CC(C)c1ccc2oc(NC(Cc3cccnc3)CS(C)(=O)=O)nc2c1 (centres unmarked) [Compound 147],< 1000 nM
15,CC(C)c1ccc2oc(N[C@@H](Cc3ccccc3)CN(C)C)nc2c1 [Compound 150],< 300 nM
16,CC(=O)NC[C@H](Cc1ccccc1)Nc1nc2cc(C(C)C)ccc2o1 [Compound 151],< 100 nM

# Same assay, conditions: Table 4, Pyridyl; values with <: see footnote d, Table 1
row,SMILES,IC50
1,Clc1ccc2sc(NC(CC3CCCCC3)c3ccccn3)nc2c1 (centres unmarked) [Compound 102],4 nM
2,FC(F)(F)c1ccc2oc(NC(CC3CCCCC3)c3ccccn3)nc2c1 (centres unmarked) [Compound 108],1 nM
